Laboratory results from patent US20210077668A1, “Highly Adherent Polymers for Orthopedic Device Coatings” (Clemson University Research Foundation, priority 2018, published 2021).

Tests used:
Format in all cases: cell-based
S. aureus [1] = assay: Maximum concentration of bacteria inactivated in the presence of 1 cm pieces of K-wires
Experimental: Control K-wires were coated with monolaurin (ML), a natural antimicrobial agent active against S. aureus. Sample K-wires were coated with a copolymer formed from 20 mole percent glycidyl methacrylate, 60 mole percent ethylene glycol methacrylate and 20 mole percent ethylene glycol methacrylate available as OEGMA 950 from Sigma Aldrich. Some of the K-wires were pulled through Septa™, to simulate surgical insertion, and the antimicrobial activity was measured. Each example was replicated nine times.

S. aureus [2] = assay: Bacteria count versus time with coated K-wires (FIG. 1)
Experimental: Additional tests were done wherein bacterial count was monitored versus time for different bacteria. In FIG. 1 the bacteria count was measured for S. aureus versus time. The K-wire alone as a control was ineffective as expected.

[3] = test system: Methicillin-Resistant Staphylococcus Aureus (MRSA); assay: Bacteria count versus time with coated K-wires (FIG. 2)
S. aureus biofilms [4] = assay: Effectiveness against biofilms, K-wires incubated in S. aureus for 48 hours (FIG. 4); conditions: S. aureus 48 hours
Experimental: Effectiveness of the inventive examples against biofilms was determined. Samples were prepared including a control K-wire (Control), a K-wire coated with ML only but not passed through a Septa™ (ML Coated), a sample treated with ML and passed through a Septa™ (ML Coated Septa), and inventive examples comprising ML with polymer, using OEGMA as the hydrophilic moiety (ML/POEGMA). Some of the inventive samples were passed through a Septa™ (ML/POEGMA Septa). The samples were all incubated in S. aureus for 48 hours. The results are provided graphically in FIG. 4.

S. aureus biofilms [5] = assay: S. aureus biofilm formation on 1 cm K-wire pieces, 48 hours (Example 3)
Experimental: The performance of Copolymer A was compared to poly(lactide-co-glycolide) PLGA) with monolaurin as a model antimicrobial additive. S. aureus biofilms were grown by statically incubating a S. Aureus suspension with 1 cm K-wire pieces for 48 hours.

Compound: CCCCCCCCCCCC(=O)OCC(O)CO (centres unmarked) [ML, monolaurin]
- Maximum concentration of bacteria inactivated in the presence of 1 cm pieced of K-wires (S. aureus [1]; No Polymer after Septa, ML 1 mg/ml): 0
- Maximum concentration of bacteria inactivated in the presence of 1 cm pieced of K-wires (S. aureus [1]; No Polymer after Septa, ML 3 mg/ml): 0
- Maximum concentration of bacteria inactivated in the presence of 1 cm pieced of K-wires (S. aureus [1]; No Polymer after Septa, ML 5 mg/ml): 0
- Maximum concentration of bacteria inactivated in the presence of 1 cm pieced of K-wires (S. aureus [1]; No Polymer after Septa, ML 10 mg/ml): 0
- Maximum concentration of bacteria inactivated in the presence of 1 cm pieced of K-wires (S. aureus [1]; No Polymer, no Septa, ML 1 mg/ml): ~6 × 10^6
- Maximum concentration of bacteria inactivated in the presence of 1 cm pieced of K-wires (S. aureus [1]; No Polymer, no Septa, ML 3 mg/ml): ~7 × 10^6
- Maximum concentration of bacteria inactivated in the presence of 1 cm pieced of K-wires (S. aureus [1]; No Polymer, no Septa, ML 5 mg/ml): ~6 × 10^6
- Maximum concentration of bacteria inactivated in the presence of 1 cm pieced of K-wires (S. aureus [1]; No Polymer, no Septa, ML 10 mg/ml): ~8 × 10^6
- bacteria count versus time (course) (S. aureus [2]): immediate decrease in bacteria due to essentially immediate release of ML, however, the activity was not sustained
- bacteria count versus time (course) [3]: results similar to those observed for S. aureus
- effectiveness against biofilms (S. aureus biofilms [4]; not passed through a Septa): effective resistance
- effectiveness against biofilms (S. aureus biofilms [4]; passed through a Septa): removed or otherwise rendered ineffective
- antimicrobial activity against biofilm formation (S. aureus biofilms [5]; after pulling the wires through silicon rubber Septa caps): lost the antimicrobial activity
- prevention of biofilm formation (S. aureus biofilms [5]; before pulling through Septa, S. aureus 48 hours): efficient in preventing biofilm formation
